The source of these data is patent US11730731B2 (INVENTAGE LAB INC., priority 2021, dated 2023).

Structures are written as SMILES. Counter-ions that a name gives are not always drawn.

Assay [1] deals with p65 NF-κB. Description: Western blotting of NF-κB activity in LPS-treated SW982 cells. To be noted: LPS 1 ug/ml, 0.5, 1, 10, 100 uM, 30 minutes, naltrexone effect at 1 uM. It is filed as cell-based, human. The procedure:
(§1) 1× Cell lysis buffer (Cell signaling, CA, USA) was mixed with protease and a phosphatase inhibitor and added to SW982 cells. After extracting the protein from the cells, the concentration was measured, and the same amount of protein was developed on an SDS-polyacrylamide gel, and transferred to an ECL nitrocellulose membrane (Amersham Pharmacia Biotech, Inc., Piscataway, N.J., USA) and blocked with nonfat dried milk for 1 hour. Thereafter, the reaction was performed with the first antibody (p65 NF-κB, phospho p65 NF-κB or calnexin; Cell signaling, CA, USA), while shaking at 4° C. for 24 hours. Then, after shaking and washing 3 times for 10 minutes with PBST buffer, the secondary antibody was incubated with anti-mouse or anti-rabbit HRP-conjugated secondary antibody for 1 hour at room temperature, and reacted with the protein band on the membrane using Supersignal west pico ECL solution (Thermo Fisher Scientific Inc.). The results were visualized with the Bio-Rad Gel Documentation system (Bio-Rad Laboratories, Hercules, Calif., USA), and the results were shown in FIG. 26.
as §1, with “phospho p65 NF-κB, p-ERK, ERK, p-JNK, JNK, p-p38, p38 or calnexin;” for “phospho p65 NF-κB or calnexin;”, “Scientific Inc.). […]” for “Scientific Inc.). The results were visualized with the Bio-Rad Gel Documentation system (Bio-Rad Laboratories, Hercules, Calif., USA), and the results were shown in FIG. 26.”

In assay [2] the test system is pro-inflammatory cytokines (TNF-α, IL-1β, IL-6, IL-17, iNOS) in Raw 264.7 cells. Description: RT-qPCR of LPS-induced pro-inflammatory cytokine expression in Raw 264.7 cells. To be noted: LPS 1 ug/ml, 0.5, 1, 10, 100 uM, 6 hours.
From the text: (§4) Lipopolysaccharide (LPS) was purchased from Sigma-Aldrich (St. Louis, Mo., USA).
Assay [3] has as its system MAPKs (ERK, JNK, p38). Description: Western blotting of MAPKs activity in LPS-treated Raw 264.7 cells. As to conditions: LPS 1 ug/ml, 0.5, 1, 10, 100 uM, 30 minutes. It is filed as cell-based, mouse. The procedure: (§2) Western blotting was performed in the same manner as in Example 6.3. The first antibody used at this time is an antibody against p-ERK, ERK, p-JNK, JNK, p-p38, p38 and calnexin (Cell signaling, CA, USA), and the secondary antibody is anti-mouse or anti-rabbit HRP-binding secondary antibody.
Western blotting was performed in the same manner as in Example 7.4.

Assay [4] deals with p65 NF-κB. Description: Western blotting of NF-κB activity in LPS-treated Raw 264.7 cells. It is filed as cell-based, mouse. As to conditions: LPS 1 ug/ml, 0.5, 1, 10, 100 uM, 30 minutes.
Assay [5] relates to pro-inflammatory cytokines (TNF-α, IL-1β, IL-6, IL-17, iNOS) in SW982 cells. Briefly: RT-qPCR of LPS-induced pro-inflammatory cytokine expression in SW982 cells. As to conditions: LPS 1 ug/ml, 0.5, 1, 10, 100 uM, 6 hours.
From the text: as §4
For assay [6], the system named is MAPKs (ERK, JNK, p38). Briefly: Western blotting of MAPKs activity in LPS-treated SW982 cells. As to conditions: LPS 1 ug/ml, 0.5, 1, 10, 100 uM, 30 minutes, naltrexone effect at 1 uM. It is filed as cell-based, human. The procedure:
as §2
1× Cell lysis buffer (Cell signaling, CA, USA) was mixed with protease and a phosphatase inhibitor and added to SW982 cells. After extracting the protein from the cells, the concentration was measured, and the same amount of protein was developed on an SDS-polyacrylamide gel, and transferred to an ECL nitrocellulose membrane (Amersham Pharmacia Biotech, Inc., Piscataway, N.J., USA) and blocked with nonfat dried milk for 1 hour. Thereafter, the reaction was performed with the first antibody (p65 NF-κB, phospho p65 NF-κB, p-ERK, ERK, p-JNK, JNK, p-p38, p38 or calnexin; Cell signaling, CA, USA), while shaking at 4° C. for 24 hours. Then, after shaking and washing 3 times for 10 minutes with PBST buffer, the secondary antibody was incubated with anti-mouse or anti-rabbit HRP-conjugated secondary antibody for 1 hour at room temperature, and reacted with the protein band on the membrane using Supersignal west pico ECL solution (Thermo Fisher Scientific Inc.). The results were visualized with the Bio-Rad Gel Documentation system (Bio-Rad Laboratories, Hercules, Calif., USA), and the results are shown in FIG. 35.

Assay [7] concerns experimental autoimmune encephalomyelitis (EAE). Description: EAE clinical score in experimental autoimmune encephalomyelitis mice (multiple sclerosis model). It is filed as in vivo. To be noted: Example 5, EAE mouse; Q-DDS 1 mg/mouse sc once on day 3; Fytarex 3 mg/kg oral daily; Revia oral daily; mean±SEM.
Method: As an experimental autoimmune encephalomyelitis mouse model (Mouse Experimental Autoimmune Encephalomyelitis: EAE), 6 to 10 week-old female mice of C57BL/6 strain were prepared.
Myelin-oligodendrocyte glycoprotein (MOG) was dissolved in phosphate-buffered saline (PBS) to be 1 mg/mL, and was emulsified by mixing at 1:1 (v/v) with 5 mg/mL Complete Freund's adjuvant. 100 μl of this was subcutaneously injected into both sides of the mouse, and then 400 μl of 2 pg/mL pertussis toxin was intraperitoneally injected (first immunization, day 0). On the second day, 400 μl of 2 μg/mL pertussis toxin was intraperitoneally injected a second time. On the third day after the first immunization, the test was performed by separating the experimental group.
Then, the occurrence and extent of clinical symptoms were regularly observed until the end of the experiment (The 30th day). The clinical symptom level was assigned a score of 0 to 5 after evaluating the functionality of the tail and four legs according to the criteria in Table 34 below, and was used as the EAE clinical score.
Assay [8] shares this test system. Description: Spinal cord histology, hematoxylin/eosin staining (inflammation score), EAE mice. To be noted: day 30, spinal cord, Fytarex 3 mg/kg, Revia 1 mg/kg, Q-DDS 1 mg/mouse. It is filed as in vivo. As to the method: (§3) After mouse euthanasia, spinal cord tissue was extracted, hematoxylin/eosin staining and Luxol Fast Blue staining were performed, and MBP-targeted immunohistochemical staining was performed, and histological evaluation was performed through blind evaluation.
On the 30th day which is the last day of the experiment, mouse was sacrificed, and the mouse spinal cord tissue was extracted and paraffin-embedded slides were prepared and then stained with hematoxylin/eosin, and the spinal cord tissue was photographed at 50 and 200 magnifications. Then, histological scores were measured according to the histological evaluation criteria of Table 36 below to evaluate the distribution of inflammatory cells.

In assay [9] the test system is myelin basic protein (MBP). Briefly: Immunohistochemistry staining of spinal cord with anti-myelin basic protein antibody, EAE mice. To be noted: day 30, spinal cord IHC, Fytarex 3 mg/kg, Revia 1 mg/kg, Q-DDS 1 mg/mouse. It is filed as in vivo. The procedure:
as §3
On the 30th day which is the last day of the experiment, mouse was sacrificed, and the mouse spinal cord tissue was extracted and paraffin-embedded slides were prepared and then myelin basic protein (MBP) was stained immunohistochemically, and the spinal cord tissue was photographed at 50 and 200 magnifications. This is to confirm demyelination through immunohistochemical analysis using an antibody against myelin basic protein (MBP), a component of myelin.

Assay [10] has as its system experimental autoimmune encephalomyelitis (EAE). Description: Spinal cord histology, Luxol Fast Blue staining (demyelination score), EAE mice. It is filed as in vivo, mouse. The procedure: as §3
On the 30th day which is the last day of the experiment, mouse was sacrificed, and the mouse spinal cord tissue was extracted and paraffin-embedded slides were prepared and then stained with Luxol Fast Blue, and the spinal cord tissue was photographed at 50 and 200 magnifications. In Luxol Fast Blue staining, myelin is stained from blue to green, and nerves are stained purple, and through this, the degree of demyelination was analyzed in the EAE model by confirming the neural structure in the spinal cord. Demyelination was analyzed according to the criteria described in Table 38 below and measured as a score.

`Oc1ccc2c3c1O[C@H]1[C@H](O)CC[C@@]4(O)[C@@H](C2)N(CC2CC2)CC[C@]314` [6β-naltrexol]: in the assay with p65 NF-κB [1], the “phosphorylation of p65 NF-κB increased by LPS” value is “no inhibitory effect”. Further, the “expression of cytokines (iNOS, IL-1β, IL-6, TNF-α) induced by LPS” value in [2] and in [5] was “suppressed at all concentrations” in each case. In addition, the “phosphorylation of MAPKs (ERK1/2, JNK, p38)” value in the assay on MAPKs (ERK, JNK, p38) [3] is “no inhibitory effect”. Besides, the “p65 NF-κB phosphorylation increased by LPS” value in the assay with p65 NF-κB [4] is recorded as “inhibited”. In addition, in the assay with MAPKs (ERK, JNK, p38) [6], the “phosphorylation of MAPKs (ERK1/2, JNK, p38) increased by LPS” value is given as “no inhibitory effect”.
Take `CCCCCCCCc1ccc(CCC(N)(CO)CO)cc1` [Fytarex®, Fingolimod]: in [7], the EAE clinical score was found to be 1.67±0.13.
As for `O=C1CC[C@@]2(O)[C@H]3Cc4ccc(O)c5c4[C@@]2(CCN3CC2CC2)[C@H]1O5` [Revia ®], the “Inflammation score (histological score), Mean” value in assay [8] is reported as 1.42. Further, in assay [9], the “MBP positive area/total spinal area, Mean” value came out at 58.23. In addition, the “Demyelination score (histological score), Mean” value in [10] (EAE mice, day 30, spinal cord, Luxol Fast Blue, Fytarex 3 mg/kg, Revia 1 mg/kg, Q-DDS 1 mg/mouse) is recorded as 0.61.
Turning to `O=C1CC[C@@]2(O)[C@H]3Cc4ccc(O)c5c4[C@@]2(CCN3CC2CC2)[C@H]1O5` [Revia®, naltrexone hydrochloride], in [10] (Example 5, EAE mouse, day 30, Q-DDS 1 mg/mouse sc once, Fytarex and Revia oral daily, mean±SEM), the “demyelination histological score (Luxol Fast Blue, spinal cord)” value is “decrease in histological score and demyelination”.
